Test results as given in ChEMBL document CHEMBL3880431, “Heme oxygenase inhibitors, screening methods for heme oxygenase inhibitors and methods of use of heme oxygenase inhibitors for antimicrobial therapy” (2013).

Columns and labels:
[1] = Solubility of the compound in methanol; assay type: physicochemical
[2] = Lipophilicity, log P of the compound; assay type: physicochemical; settings: octanol/water; read-out: logP
[3] = Solubility of the compound in ethanol; assay type: physicochemical
Heme oxygenase = molecular target: T1, Heme oxygenase (Pseudomonas aeruginosa, UniProt O69002); experiment: Binding affinity to Pseudomonas aeruginosa MPAO1 wild type apo heme oxygenase by spectrofluorimetric analysis
T1 sequence (O69002 whole entry): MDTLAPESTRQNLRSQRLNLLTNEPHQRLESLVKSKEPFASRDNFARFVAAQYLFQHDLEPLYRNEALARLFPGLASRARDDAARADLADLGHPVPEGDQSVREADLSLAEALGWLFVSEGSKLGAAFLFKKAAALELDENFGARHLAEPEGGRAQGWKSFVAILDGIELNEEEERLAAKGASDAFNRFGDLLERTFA

[4] = molecular target: T2, Biliverdin-producing heme oxygenase (Neisseria meningitidis, UniProt Q9AH50); experiment: Binding affinity to Neisseria meningitidis wild type apo heme oxygenase expressed in Escherichia coli BL21(DE3) pLysS by spectrofluorimetric analysis
T2 sequence (Q9AH50 whole entry): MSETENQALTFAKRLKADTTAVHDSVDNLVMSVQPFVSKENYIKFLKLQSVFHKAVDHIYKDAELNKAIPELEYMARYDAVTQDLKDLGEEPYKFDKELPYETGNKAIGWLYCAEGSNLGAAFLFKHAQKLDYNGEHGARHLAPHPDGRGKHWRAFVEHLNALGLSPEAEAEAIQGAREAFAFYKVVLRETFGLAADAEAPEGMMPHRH

Pseudomonas aeruginosa = experiment: Antimicrobial activity against Pseudomonas aeruginosa MPAO1 after 10 hrs; assay type: functional; settings: MPAO1, 10 h

Row | Compound | solubility [1] | logP [2] | solubility [3] | other results
1 | Cc1ccc(NC(=O)c2cnccn2)cc1Cl | Insoluble | 1.48 |  | 
2 | O=C(O)c1ccc2c(c1)C(=O)N(c1ccc(Cl)cc1)C2=O | Soluble | 3.03 |  | 
3 | CN(C)CCN(C)Cc1cccc2ccccc12 | Insoluble | 3.05 |  | 
4 | CC(C)c1ccc(CN2CCN(CCO)CC2)cc1 | Insoluble | 1.93 |  | 
5 | O=C(O)c1cccc(NCN2C(=O)c3ccc([N+](=O)[O-])cc3C2=O)c1 |  | 2.13 | Insoluble | 
6 | Nc1nnnn1/N=C/c1cc2c(cc1[N+](=O)[O-])OCO2 | Insoluble | 0.52 |  | 
7 | O=C(O)/C=C\C(=O)Nc1ccc(Nc2ccccc2)cc1 | Soluble | 2.6 |  | 
8 | NC(=O)NC(=O)C[n+]1ccc(C(N)=O)cc1 |  | -1.11 | Insoluble | 
9 | COc1cc(CC(=O)O)c([N+](=O)[O-])cc1OC |  | 1.3 | Insoluble | 
10 | O=C(c1ccco1)C12CN3CN(CN(C3)C1)C2 | Soluble | -0.96 |  | 
11 | Cc1cccc(NC(=O)c2ccc(C(=O)Nc3cccc(C)n3)cc2)n1 | Insoluble | 2.68 |  | 
12 | N#CC(C#N)=CNNC(=O)CNC(=O)c1ccccc1[N+](=O)[O-] |  | -0.72 | Insoluble | 
13 | O=C(Oc1ccc(OC(=O)c2ccco2)cc1)c1ccco1 | Insoluble | 2.53 |  | 
14 | N=C(N/N=C\c1cccnc1)N/N=C\c1cccnc1 | Soluble | 7.05 |  | 
15 | O=C1OC(c2ccccc2)=N/C1=C\Nc1cccc([N+](=O)[O-])c1 | Insoluble | 3.05 |  | 
16 | Cc1cc(C)nc(NC(=N)Nc2ccc(C(=O)O)cc2)n1 | Soluble | 1.62 |  | 
17 | Nc1nonc1-c1noc(-c2cccnc2O)n1 | Insoluble | 0.04 |  | 
18 | O=C(O)C(=O)Cc1c[nH]c2ccccc12 |  | 1.59 | Soluble | Kd (Heme oxygenase): Active; Kd [4]: Active
19 | Cc1ccccc1C(=O)Nc1cc(C(=O)O)cc(C(=O)O)c1 | Insoluble | 2.62 |  | Kd (Heme oxygenase; read-out: Kd): 72.8 µM; Kd ([4]; read-out: Kd): 28.8 µM
20 | O=[N+]([O-])c1cccc(-c2noc(Cc3ccccc3)n2)c1 |  | 3.33 | Insoluble | 
21 | O=CNc1nonc1NNc1ccccc1 | Soluble | 0.89 |  | 
22 | O=C1C=C(Nc2ccccc2O)c2ccccc2C1=O |  | 2.8 | Soluble | 

Row | Compound | solubility [1] | logP [2] | solubility [3] | other results
23 | O=[N+]([O-])c1cccc(/C=N/Nc2ccc(S(=O)(=O)O)cc2)c1 | Insoluble | 4.62 |  | MIC50 (Pseudomonas aeruginosa): > 1000 µg/mL
24 | O=C(Nc1ccc(-c2cn3ccccc3n2)cc1)c1ccccc1[N+](=O)[O-] | Soluble | 3.56 |  | MIC50 (Pseudomonas aeruginosa): > 380 µg/mL
25 | CCN1CCN(CCN)CC1 | Soluble | -0.88 |  | 
26 | O=C(O)c1cc(-c2cccnc2)nc2ccccc12 | Insoluble | 2.51 |  | 
27 | Cn1c(=N)n(CC(=O)O)c2ccccc21 |  | 1.6 | Soluble | 
28 | CCc1cc(=O)oc2cc(OCC(N)=O)ccc12 | Insoluble | 1.46 |  | 
29 | CN1CCN(CCCn2cnc3c2c(=O)n(C)c(=O)n3C)CC1 | Soluble | -0.76 |  | 
30 | O=[N+]([O-])c1cccc(CN2CCNCC2)c1 | Soluble | 1.18 |  | MIC50 (Pseudomonas aeruginosa): > 1000 µg/mL
31 | O=C(N/N=C/c1ccc(O)cc1O)c1cccnc1 | Insoluble | 1.88 |  | 
32 | O=C(NCCOc1ccccc1)C(=O)Nc1ccccc1 | Insoluble | 1.77 |  | 
33 | O=C(O)c1ccc2c(c1)-c1nc3ccccc3n1C2=O |  | 2.52 | Insoluble | 
34 | O=C(O)c1ccc2c(c1)C(=O)N(CCO)C2=O | Soluble | 0.09 |  | 
35 | CCN(CC)c1ccc(/C=N/n2nnnc2N)c(O)c1 | Soluble | 1.17 |  | Kd (Heme oxygenase): Active; Kd [4]: Active
36 | Cc1cc(O)nc(-c2ccc(C(N)=O)cc2)n1 |  | 0.86 | Insoluble | 
37 | CC(=O)Oc1ccc(-c2cccc(C(=O)O)c2)cc1 | Soluble | 3.51 |  | MIC50 (Pseudomonas aeruginosa): > 1000 µg/mL
38 | Cc1n[nH]c(Nc2ccccc2F)c1[N+](=O)[O-] |  | 2.63 | Insoluble | 
39 | Cc1ccc(S(=O)(=O)NC(=O)NCc2ccco2)cc1 |  | 1.2 | Insoluble | 
40 | COc1ccc(-c2nn(CCC#N)c(=O)[nH]2)cc1 |  | 1.15 | Soluble | 
41 | O=C(O)CCn1ncc2ccccc21 |  | 0.91 | Soluble | 
42 | NNC(=O)c1cccc2cc[nH]c12 |  | 0.8 | Insoluble | 
43 | O=C(CNc1ccc2ccccc2c1)N/N=C/c1ccccn1 |  | 3.16 | Insoluble | 
